Here are results for twelve compounds from patent publication EP0089939A1, “Compositions for therapeutic or diagnostic use containing oligosaccharides” (BioCarp AB, priority 1982, dated 1983).

The test system of one assay is N.meningitidis. Kind of assay: Inhibition of adherence of N. meningitidis to buccal mucosa cells. The settings on record: human buccal mucosa cells, N.meningitidis strain 3K, 45 min. It counts as cell-based. Here is the method: (§1) Procedure: 1 ml of […] containing 0 of (1), 5 mg/ml of (1) and 0.5 mg/ml of (1) and 5 mg/ml of (2), respectively, were incubated with 0.5 ml bacterial suspension at 37°C for 30 minutes. Vaginal cells (1 ml) were incubated with the above preincubated bacterial suspensions at 37°C for 45 minutes. The incubated suspensions were filtered through a filter (pore size 12 µ) and washed 3 times with PBS. The filter was pressed against microscope slides for a few seconds, the microscope slides being then fixed in methanol for 10 minutes. The microscope slides were dried in air and coloured with acridine orange for 2 minutes. After washing and drying in air the slides were studied by means of fluorescence microscopy. The number of bacteria adhering per cell was counted. In each test 50 vaginal cells were counted.
The procedure of EXAMPLE 2 was repeated but in this case cells were collected from young healthy women by scraping the Buccal Mucosae with a wooden spatula. The bacterium used was N.meningitidis, international test strain 3K, Statens Seruminstitut, Copenhagen, Denmark.

Assay [1] concerns N.gonorrhoeae. Kind of assay: Inhibition of adherence of N. gonorrhoeae to vaginal cells. In kind it is cell-based. The settings on record: human vaginal cells, 50 cells counted; for reduction of the number of adhering bacteria: 5 mg/ml oligosaccharide. As to the method:
Cells: Vaginal cells from healthy women in fertile age not having used hormonal preparations and werein proliferation phase were tested. Cells were collected from rear vaginal fornix with a wooden spatula and suspended in RPMI 1640 in a concentration of 10^5 cells/ml.
Gonococci: International reference strain 3 from Neisseriaavd. Statens Seruminstitut, Copenhagen, Denmark, suspended in cell cultivation medaium RPMI 1640 (Flow Ltd.) in a concentration of 10^9 bacteria/ml.
Oligosaccharides: β-D-Galp-(1-3)- -D-GalNAc-(1-0)-Me (1) β-D-Galp-(1-3)- -D-GalNAc-(1-0)-Me (2)
as §1

Assay [2] concerns N.gonorrhoeae. Kind of assay: Inhibition of haemagglutination of human erythrocytes by N. gonorrhoeae. The conditions noted are these: Neisseria gonorrhoeae, Erythrocyte; human erythrocytes (O1Rh+); fimbriated N.gonorrhoeae; read after 2-4 hours at room temperature; read-out: Minimum concentration of inhibitor resulting in complete inhibition. In kind it is cell-based. Here is the method: (§2) In the test there is used a strain of N. gonorrhoeae (international reference strain 3 from Neisseriaavd. Statens seruminstitutt, Copenhagen, Denmark. and a fresh strain of the same species isolated at the Bacteriological Central Laboratory, Lunds Hospital, Lund, Sweden). The bacteria were cultivated on a special gonococc medium, see Mardh, P.A., Martensson, D, Soltesz, L.V. "An effective, simplified medium for the culture of N. gonorrhoeae". Sex.Trans.Dis. Vol. 5, pp. 10-13, 1978, at + 37°C for 18 hours. The bacterial culture was slurried in PBS, pH 7.2 to a density of 109 bacteria/ml.
(§3) Haemagglutination was performed using erythrocytes from sheep or man (O1Rh+) which were washed with PBS and suspended to a concentration of 1 % v/w in PBS, pH 7.2. The agglutination tests were-performed so that 25 µl of the bacterial suspension was titrated in PBS by using two-fold […] steps. Then 25 µl of the erythrocyte suspension which had been made 1 % were added. The haemagglutination titre (Hu) was determined after incubating the plates (microtitre plates, Limbo Sc. Comp. Inc.) for 2-4 hours in room temperature.
(§4) In the haemagglutination-inhibition tests there were used serial dilutions having the relevant inhibitor (50 µl/well) and […] bacterial suspension diluted to contain twice the lowest haemagglutination titre. The plates were incubated for 30 minutes at +37°C, 25 µl of erythrocyte suspension being then added to each well. The result was read after 2-4 hours incubation at room temperature.

A further assay relates to N. gonorrhoeae. Kind of assay: Inhibition of haemagglutination of sheep erythrocytes by N. gonorrhoeae. In kind it is cell-based. The settings on record: Neisseria gonorrhoeae, Erythrocyte, fimbriated N. gonorrhoeae, read after 2-4 hours at room temperature, read-out: Minimum concentration of inhibitor resulting in complete inhibition of haemagglutination. As to the method:
as §2, §3, §4

For assay [3], the system named is N.gonorrhoeae. The assay can be described thus: Disinfection: removal of bacteria from an infected surface. The settings on record: 0.1 percent by weight aqueous solution applied with a cotton pad. As to the method:
By disinfection is here primarily intended removal of bacteria from a surface, for example a wound.
A 0.1 percent by weight aqueous solution of the compound β-D-Galp-(1-4)-D-GNAc is prepared and applied by means of a cotton pad onto a surface infected by N.gonorrhoeae.

`COC1O[C@H](CO)[C@H](O)[C@H](O[C@@H]2O[C@H](CO)[C@H](O)[C@H](O)[C@H]2O)[C@H]1NC(C)=O` (stereo partly drawn) [(1), β-D-Galp-(1-3)- -D-GalNAc-(1-0)-Me]: the “reduction of the number of adhering bacteria” value is reported as “about 15%” in the assay with N.meningitidis (0.5 mg/ml oligosaccharide), 90% in the assay with N.meningitidis (5 mg/ml oligosaccharide) and 87 in the assay with N.gonorrhoeae [1] (45 min). Also, the effect on adherence result with N.gonorrhoeae [1] (0.5 mg/ml oligosaccharide) is “did not significantly effect adherence”. For the compound `COC1O[C@H](CO)[C@H](O)[C@H](O[C@@H]2O[C@H](CO)[C@H](O)[C@H](O)[C@H]2O)[C@H]1NC(C)=O` (stereo partly drawn) [(2), β-D-Galp-(1-3)- -D-GalNAc-(1-0)-Me], the “reduction of the number of adhering bacteria” value in the assay with N.gonorrhoeae [1] is reported as “did not significantly effect adherence”. Consider `CC(=O)N[C@H]1[C@H](O[C@H]2[C@@H](O)[C@@H](CO)O[C@H](O[C@@H]3[C@H](O)[C@@H](O)[C@H](O[C@H]4[C@H](O)[C@@H](O)C(O)O[C@@H]4CO)O[C@@H]3CO)[C@@H]2O)O[C@H](CO)[C@H](O)[C@@H]1O` (stereo partly drawn) [β-D-GalNAc-(1-3)-α-D-Galp-(1-4) -β-D-Galp-(1-4)-D-Glc], for which the minimal effective concentration in the assay with N.gonorrhoeae [2] is more than 5000 µg/mL. `CC(=O)N[C@H]1C(O)O[C@H](CO)[C@H](O)[C@@H]1O[C@@H]1O[C@H](CO)[C@H](O)[C@H](O)[C@H]1O` (stereo partly drawn) [β-D-Galp-(1-3)-D-GalNAc]: the minimal effective concentration in the assay with N.gonorrhoeae [2] was 800 µg/mL; in the assay with N. gonorrhoeae, 900 µg/mL. Regarding `OC[C@H]1O[C@@H](O[C@H]2[C@@H](O)[C@@H](CO)OC(O)[C@@H]2O)[C@H](O)[C@@H](O)[C@H]1O` (stereo partly drawn) [β-D-Galp-(1-3)-D-Gal], the minimal effective concentration in the assay with N.gonorrhoeae [2] is more than 5000 µg/mL. In the case of `CO[C@H]1O[C@H](CO)[C@H](O)[C@H](O[C@@H]2O[C@H](CO)[C@H](O)[C@H](O)[C@H]2O)[C@H]1NC(C)=O` [β-D-Galp-(1-3)-α-D-GalNAc-(1-O)Me], the minimal effective concentration in the assay on N. gonorrhoeae stood at 150 µg/mL.

On to `CO[C@H]1O[C@H](CO)[C@H](O)[C@H](O[C@@H]2O[C@H](CO)[C@H](O)[C@H](O)[C@H]2O)[C@H]1NC(C)=O` [β-D-Galp-(1-3)-α-D-GalNAcp-(1-O)Me, Methyl 2-acetamido-2-deoxy-3-0-(β-D-galactopyranosyl)-a--D-galactopyranoside], for which, in the assay on N.gonorrhoeae [2], the minimal effective concentration turned out to be 200 µg/mL. For `CO[C@@H]1O[C@H](CO)[C@H](O)[C@H](O[C@@H]2O[C@H](CO)[C@H](O)[C@H](O)[C@H]2O)[C@H]1NC(C)=O` [β-D-Galp-(1-3)-β-D-GalNAc-(1-O)Me], the minimal effective concentration in the assay with N. gonorrhoeae was more than 2000 µg/mL. In the case of `CO[C@@H]1O[C@H](CO)[C@H](O)[C@H](O[C@@H]2O[C@H](CO)[C@H](O)[C@H](O)[C@H]2O)[C@H]1NC(C)=O` [β-D-Galp-(1-3)-β-D-GalNAcp-(1-O)Me, Methyl 2-acetamido-2-deoxy-3-0-(B-D-galaetopyranosyl)--β-D-galactopyranoside], in the assay on N.gonorrhoeae [2], the minimal effective concentration is more than 2000 µg/mL. Consider `CC(=O)N[C@H]1C(O)O[C@H](CO)[C@@H](O[C@@H]2O[C@H](CO)[C@H](O)[C@H](O)[C@H]2O)[C@@H]1O` (stereo partly drawn) [β-D-Galp-(1-4)-D-GNAc], for which the “removal of the bacterium from the surface” value in the assay on N.gonorrhoeae [3] is “effective removal of the bacterium from the surface”. As for `OC[C@H]1O[C@@H](O[C@H]2[C@H](O)[C@@H](O)C(O)O[C@@H]2CO)[C@H](O)[C@@H](O)[C@H]1O` (stereo partly drawn) [β-D-Galp-(1-4)-D-Glc], the minimal effective concentration in the assay on N.gonorrhoeae [2] is more than 5000 µg/mL. On to `OC[C@H]1O[C@@H](OC[C@H]2OC(O)[C@H](O)[C@@H](O)[C@@H]2O)[C@H](O)[C@@H](O)[C@H]1O` (stereo partly drawn) [β-D-Galp-(1-6)-D-Glc], for which the minimal effective concentration with N.gonorrhoeae [2] was more than 5000 µg/mL.
